From US9113629B2, “4-amino-6-(4-substituted-phenyl)-picolinates and 6-amino-2-(4-substituted-phenyl)-pyrimidine-4-carboxylates and their use as herbicides” (DOW AGROSCIENCES LLC, priority 2013, dated 2015)
Like-named read-outs stand apart in the source and are kept apart here.

Key:
[1] = tested on: Key Broadleaf Weed and Crop Species; assay: Post-emergent Test II herbicidal activity (Table 5); assay type: in vivo; details: post-emergence, 336 h, post-emergent, 14 days after application; for pest or weed control at 70 g/ha: 70 g ai/ha; for pest or weed control at 140 g/ha: 140 g ai/ha
Procedure, shortened: (§1)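 Post-emergence foliar spray, 187 L/ha, track sprayer at 43 cm above canopy. Carrier: acetone/water/IPA/DMSO/Atplus 411F/Triton X-155. Plants at 1st–2nd true leaf; subirrigated afterwards; % injury scored visually at 14 d.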

[2] = tested on: Key Grass and Sedge Weeds as well as Grass Crops; assay: Post-emergent Test II herbicidal activity (Table 6); assay type: in vivo; details: post-emergence, 336 h; for pest or weed control at 70 g/ha: application rate 70 g ai/ha; for pest or weed control at 140 g/ha: application rate 140 g ai/ha
Procedure, shortened: as §1

[3] = ABUTH: velvetleaf (Abutilon theophrasti), read-out: Visual Growth Reduction (%) 14 Days After Application ABUTH
[4] = AMARE: redroot pigweed (Amaranthus retroflexus), read-out: Visual Growth Reduction (%) 14 Days After Application AMARE
[5] = BRSNN: oilseed-rape, canola (Brassica napus), read-out: Visual Growth Reduction (%) 14 Days After Application BRSNN
[6] = CHEAL: lambsquarters (Chenopodium album), read-out: Visual Growth Reduction (%) 14 Days After Application CHEAL
[7] = EPHHL: wild poinsettia (Euphorbia heterophylla), read-out: Visual Growth Reduction (%) 14 Days After Application EPHHL
[8] = HELAN: sunflower (Helianthus annuus), read-out: Visual Growth Reduction (%) 14 Days After Application HELAN
[9] = VIOTR: wild pansy (Viola tricolor), read-out: Visual Growth Reduction (%) 14 Days After Application VIOTR
[10] = Triticum aestivum, TRZSS (wheat), read-out: Visual Growth Reduction (%) 14 Days After Application, TRZSS
[11] = CYPES: yellow nutsedge (Cyperus esculentus), read-out: Visual Growth Reduction (%) 14 Days After Application, CYPES
[12] = DIGSA: crabgrass (Digitaria sanguinalis), read-out: Visual Growth Reduction (%) 14 Days After Application, DIGSA
[13] = ECHCG: barnyardgrass (Echinochloa crus-galli), read-out: Visual Growth Reduction (%) 14 Days After Application, ECHCG
[14] = ORYSA: rice (Oryza sativa), read-out: Visual Growth Reduction (%) 14 Days After Application, ORYSA
[15] = SETFA: giant foxtail (Setaria faberi), read-out: Visual Growth Reduction (%) 14 Days After Application, SETFA
[16] = SORVU: grain sorghum (Sorghum vulgare), read-out: Visual Growth Reduction (%) 14 Days After Application, SORVU
[17] = ZEAMX: maize, corn (Zea mays), read-out: Visual Growth Reduction (%) 14 Days After Application, ZEAMX
[18] = TRZSS (wheat, Triticum aestivum), read-out: Visual Growth Reduction (%) 14 Days After Application, TRZSS

SMILES | pest or weed control at 70 g/ha [1, 3] | pest or weed control at 140 g/ha [1, 3] | pest or weed control at 70 g/ha [1, 4] | pest or weed control at 140 g/ha [1, 4] | pest or weed control at 70 g/ha [1, 5] | pest or weed control at 140 g/ha [1, 5] | pest or weed control at 70 g/ha [1, 6] | pest or weed control at 140 g/ha [1, 6] | pest or weed control at 70 g/ha [1, 7] | pest or weed control at 140 g/ha [1, 7] | pest or weed control at 70 g/ha [1, 8] | pest or weed control at 140 g/ha [1, 8] | pest or weed control at 70 g/ha [1, 9] | pest or weed control at 140 g/ha [1, 9] | pest or weed control at 70 g/ha [2, 11] | pest or weed control at 140 g/ha [2, 11] | pest or weed control at 70 g/ha [2, 12] | pest or weed control at 140 g/ha [2, 12] | pest or weed control at 70 g/ha [2, 13] | pest or weed control at 140 g/ha [2, 13] | also measured
C=Cc1c(N)nc(-c2ccc(F)c(F)c2F)nc1C(=O)O [Compound 191, 6-Amino-2-(2,3,4-trifluorophenyl)-5-vinylpyrimidine-4-carboxylic acid] | 60 to 74% | 95 to 100% | 95 to 100% | 95 to 100% | 95 to 100% | 95 to 100% | 95 to 100% | 95 to 100% | 95 to 100% | 95 to 100% | 95 to 100% | 95 to 100% | 45 to 59% | 45 to 59% | 0 to 29% | 60 to 74% | 60 to 74% | 75 to 84% | 85 to 94% | 75 to 84% | pest or weed control at 70 g/ha [2, 10]: 0 to 29%; pest or weed control at 140 g/ha [2, 10]: 30 to 44%; pest or weed control at 70 g/ha [2, 14]: 0 to 29%; pest or weed control at 140 g/ha [2, 14]: 0 to 29%; pest or weed control at 70 g/ha [2, 15]: 75 to 84%; pest or weed control at 140 g/ha [2, 15]: 75 to 84%; pest or weed control at 70 g/ha [2, 16]: 45 to 59%; pest or weed control at 140 g/ha [2, 16]: 45 to 59%; pest or weed control at 70 g/ha [2, 17]: 45 to 59%; pest or weed control at 140 g/ha [2, 17]: 60 to 74%; melting point: 154 to 157 °C
COC(=O)c1nc(-c2cc(F)c(C(F)(F)F)cc2F)nc(N)c1OC [Compound 148, methyl 6-amino-2-(2,5-difluoro-4-(trifluoromethyl)phenyl)-5-methoxypyrimidine-4-carboxylate] | 75 to 84% | 75 to 84% | 0 to 29% | 0 to 29% | 45 to 59% | 60 to 74% | 85 to 94% | 95 to 100% | 85 to 94% | 75 to 84% | 45 to 59% | 60 to 74% | 45 to 59% | 60 to 74% | 60 to 74% | 75 to 84% | 0 to 29% | 0 to 29% | 0 to 29% | 0 to 29% | pest or weed control at 70 g/ha [2, 14]: 0 to 29%; pest or weed control at 140 g/ha [2, 14]: 30 to 44%; pest or weed control at 70 g/ha [2, 15]: 0 to 29%; pest or weed control at 140 g/ha [2, 15]: 0 to 29%; pest or weed control at 70 g/ha [2, 16]: 0 to 29%; pest or weed control at 140 g/ha [2, 16]: 0 to 29%; pest or weed control at 70 g/ha [2, 18]: 30 to 44%; pest or weed control at 140 g/ha [2, 18]: 60 to 74%; pest or weed control at 70 g/ha [2, 17]: 0 to 29%; pest or weed control at 140 g/ha [2, 17]: 30 to 44%; melting point: 96 to 98 °C
C=Cc1c(N)nc(-c2ccc(F)c(F)c2F)nc1C(=O)OC [Compound 197, Methyl 6-amino-2-(2,3,4-trifluorophenyl)-5-vinylpyrimidine-4-carboxylate] | 95 to 100% | 95 to 100% | 95 to 100% | 95 to 100% | 95 to 100% | 85 to 94% | 95 to 100% | 95 to 100% | 95 to 100% | 95 to 100% | 85 to 94% | 85 to 94% | 60 to 74% | 75 to 84% | 60 to 74% | 60 to 74% | 45 to 59% | 60 to 74% | 0 to 29% | 75 to 84% | pest or weed control at 70 g/ha [2, 10]: 0 to 29%; pest or weed control at 140 g/ha [2, 10]: 0 to 29%; pest or weed control at 70 g/ha [2, 14]: 0 to 29%; pest or weed control at 140 g/ha [2, 14]: 0 to 29%; pest or weed control at 70 g/ha [2, 15]: 0 to 29%; pest or weed control at 140 g/ha [2, 15]: 0 to 29%; pest or weed control at 70 g/ha [2, 16]: 60 to 74%; pest or weed control at 140 g/ha [2, 16]: 60 to 74%; pest or weed control at 70 g/ha [2, 17]: 60 to 74%; pest or weed control at 140 g/ha [2, 17]: 60 to 74%; melting point: 156 to 158 °C
